Test results as given in paper PMC7714071, “Interaction of amyloid beta with humanin and acetylcholinesterase is modulated by ATP” (FEBS Open Bio, 2020).

Experiments:
[1] = system: Aβ in A549 cell-conditioned media; assay: ELISA, oligomer versus total Aβ in A549 cell-conditioned media; assay type: cell-based, human; details: Fig. 8A
Method: Aβ ELISAs were carried out according to previous protocols for determining the oligomeric and monomeric concentrations of Aβ and as we recently reported. Briefly, total Aβ (monomers + oligomers) was measured by two‐site binding ELISAs using the capture 6E10 monoclonal antibody and 4G8‐conjugated biotin as the detection antibody, which recognizes a distinct epitope, then quantitated using streptavidin‐HRP.
Using the same samples, oligomerized Aβ was measured by a single‐site ELISA in which antibodies targeting the same primary sequence epitope were used for both capture (4G8) and detection (4G8‐biotin). Only oligomers are detected with this approach since the 4G8‐biotin antibody cannot bind to the captured monomer because the epitope is blocked by the 4G8 capture antibody. Therefore, only oligomeric or multimeric Aβ containing additional exposed 4G8 epitopes, not engaged by the capture antibody, are reported by the streptavidin–HRP. The amount of the monomer was then estimated as the difference between the concentration of total Aβ and the concentration of the oligomer.
Conditioned media were immunodepleted (ID) according to the methods previously described and our recently published report. Briefly, specific antibodies were bound to ELISA wells overnight (1 : 1000 dilution). The wells were then blocked and washed, then 300 μL of the conditioned medium (0.5 μg·μL^−1) treated as indicated, 72 h postserum starvation, was incubated with the antibodies bound to ELISA wells for 24 h. The ID media were then carefully removed and analyzed for the presence of the target protein or peptide by ELISA. The same amount of protein (3 µL of 600 µg·mL^−1 total protein) of each sample was analyzed in the experiments. Significant depletion (95–100%) was observed upon using each of the antibodies employed in this study.
Both epitopes recognized by the 6E10 and 4G8 antibodies have been previously shown to be exposed in Aβ aggregates. […] To determine the effect of ID of AChE or HN on this ratio in the absence or presence of added ATP, 0.2 × 10^5 cells per well were seeded in 96‐well plates in 10% FBS‐supplemented media. The next day, the cells were incubated in serum‐free medium for 72 h, then ID of AChE or HN as described in Materials and methods. The antibodies 6E10 or 4G8 were bound (1 : 1000 dilution) to ELISA wells (Fig. 8). The wells were blocked, and then incubated with 300 μL of the ID medium (0.5 μg·μL^−1). Biotin‐4G8 was then added and the signal processed as described in Materials and methods section. Fold change relative to controls using anti‐6E10 or anti‐4G8 antibodies incubated with 300 μL of the medium not incubated with cells was calculated.
Cells (0.2 × 10^5) were grown in 10% FBS‐supplemented media for 24 h. The cells were then incubated in serum‐free medium for 72 h without or with ATP and the media collected and ID from either HN or AChE as described in Materials and methods section. The antibodies 6E10 or 4G8 were bound (1 : 1000 dilution) to ELISA wells. The wells were blocked, and then incubated with 300 μL of the control and ID medium (0.5 μg·μL^−1). Biotin‐4G8 was then added and the signal processed as described in Materials and methods section. Fold change relative to controls using anti‐6E10 and anti‐4G8 antibodies and 300 μL of the medium not incubated with cells was calculated. Data were processed using the […] 8.4.3 software. The graphs summarize the results expressed as means ± SD of three separate experiments, each performed in triplicate. […]

Aβ = details: cited from earlier work
Description: Soluble oligomers of proteins implicated in different diseases are primarily thought to be the main toxic form as opposed to the larger fibrillar assemblies. Aβ regions containing Tyr and Ser (H6DSGY10 and G25SNKG29) (Fig. 1) along with post‐translational modifications of these regions, have been implicated in misfolding, oligomerization, or fibril formation of Aβ [5, 10, 11, 16, 41]. […] In addition to ATP, the glycosaminoglycan, heparan sulfate (HS), has been previously reported to i ... || Access to the central domain of Aβ (residues 17–24) flanked by Lys‐16 and Lys‐28, known to be a critical structural element in fibrillar Aβ aggregates, might be regulated by binding of AChE and HN to their overlapping binding sites on Aβ. […] Moreover, we s ...

## Humanin [HN]
[1]; HN-immunodepleted A549 media (non-depleted ~ 63%)
  oligomer, % of total Aβ remaining after HN ID: ~ 86%
[1]; HN-immunodepleted A549 media
  total Aβ remaining after HN ID: ~ 63%
Aβ; to levels close to HN alone
  Aβ aggregation in presence of both HN and AChE: greatly diminished

## Nc1ncnc2c1ncn2[C@@H]1O[C@H](COP(=O)(O)OP(=O)(O)OP(=O)(O)O)[C@@H](O)[C@H]1O [ATP, Adenosine triphosphate]
[1]; HN-immunodepleted A549 media, three experiments in triplicate
  effect of ATP on relative amount of oligomer versus total Aβ: does not affect
[1]; non-depleted, HN-ID or AChE-ID media
  effect of ATP on relative amount of oligomer versus total Aβ: lack of effect
Aβ; physiological intracellular concentrations, enhanced by magnesium
  effect on misfolding of Aβ: reduced misfolding of Aβ

## heparan sulfate [HS]
Aβ
  effect of HS on Aβ aggregation: increasing their aggregation
